Data on two compounds can be found in BindingDB's records for doi:10.1021/jm00167a014 (Merrell Dow Research Institute, 1990).

The target in the test is Peroxisomal N(1)-acetyl-spermine/spermidine oxidase (Rattus norvegicus). The test can be described thus: Tested for in vitro binding affinity against polyamine oxidase after intraperitoneal administration in the rat liver.

As to `C=C=CCNCCCNCCCCCCCCNCCCNCC=C=C`, the Ki – broadly, the equilibrium dissociation constant of an inhibitor or competing ligand from its target – worked out at 2500 nM.
The value for `C=C=CCNCCCNCCCNCC=C=C` was 3000 nM.
